Laboratory results published in article PMC5341858, “Molecular regulation of apoptotic machinery and lipid metabolism by mTORC1/mTORC2 dual inhibitors in preclinical models of HER2+/PIK3CAmut breast cancer” (Oncotarget, 2016).

Experiments:
Assay type in all cases: cell-based
MDA-MB-231 cells = assay: Glucose-to-lipid conversion (de novo lipid synthesis); settings: similar treatment, 4 h saturating dose
Experimental: (§1) Cellular glucose-to-lipid conversion was measured as described. Briefly, cells were pretreated with inhibitors for 2 h, incubated for 2 h in medium containing 2 μCi/mL D-[1-14C] glucose (PerkinElmer, NEC043X001MC). Total lipids were extracted twice with 300 μL hexane:isopropanol (3:2; vol:vol). Cell debris was carefully removed by centrifugation at 14,000 rpm for 5 min using a microcentrifuge. Radioactive lipids were dried, redissolved with 100 μL of chloroform and determined by liquid scintillation counting. A duplicate assay plate without radioactive glucose label was used to count the number of cells per treatment. Glucose to total lipid conversion rate is the radioactive counts from the extracted lipid normalized by the number of cells per hour of ^14C-glucose incubation. For acetyl-CoA assay, cells grown in 96-well plates were washed and lysed in 40 μL/well using lysis buffer. Cell lysates were transferred to V-bottom plates, cleared by centrifugation. 30 μL of the cleared cell lysates were subjected to acetyl-CoA measurement using an acetyl-CoA assay kit (Sigma, MAK-039) following manufacturer's assay manual. Duplicate assay plates were used to count the number of cells per treatment for normalization in determining cellular acetyl-CoA levels.

MDA-MB-453 cells [1] = assay: as above; settings: 4 h, saturating dose (5 μM MTI-31, 1 μM rapamycin)
Experimental: as §1

MDA-MB-453 cells [2] = assay: Total cellular acetyl-CoA level; settings: 24 h
Experimental: as §1

Row | SMILES | effect on de novo lipid synthesis (MDA-MB-231 cells) | suppression of de novo lipid synthesis (14C-glucose-to-lipid conversion rate) (MDA-MB-453 cells [1]) | reduction in acetyl-CoA (MDA-MB-453 cells [2])
1 | CO[C@H]1C[C@@H]2CC[C@@H](C)[C@@](O)(O2)C(=O)C(=O)N2CCCC[C@H]2C(=O)O[C@H]([C@H](C)C[C@@H]2CC[C@@H](O)[C@H](OC)C2)CC(=O)[C@H](C)/C=C(\C)[C@@H](O)[C@@H](OC)C(=O)[C@H](C)C[C@H](C)/C=C/C=C/C=C/1C [rapamycin] | did not significantly reduce lipid synthesis | 32% | 45%
2 | COc1ccc(-c2ccc3c(N4CCOC[C@@H]4C)nc(N4CCOC[C@@H]4C)nc3n2)cc1CO [AZD8055] | did not significantly reduce lipid synthesis | 63% | –
